The values below come from US5808165A, “β-diketones, processes for making β-diketones and use of β-diketones as stabilizers for PVC” (Rhone-Poulenc Chimie, priority 1992, dated 1998).

The nature of one data set: Physical state. The format is physicochemical.
Data set [1] is described as follows: Vapor pressure at 180° C. The format is physicochemical. The protocol:
Study of the physico-chemical properties of the β-diketones
Table 1 gives the vapor pressures at 180° C., which is a typical temperature at which PVC is employed.

Data set [2] in a line: Solubility of dibenzoylmethane in solvents (comparative).
Data set [3] is described as follows: Solubility in "one-pack" additive. The format is physicochemical.
The nature of data set [4]: Solubility in the principal constituents of an "all in one" additive. Format: physicochemical. Also noted: key: S: Mixture soluble; S1: Mixture soluble but viscous; S2: Mixture soluble but very viscous; I: Mixture insoluble. An excerpt: Solubility in the principal constituents of an "all in one" additive
The purpose was to compare the behavior of a mixture based on a composition according to the invention with a mixture based on dibenzoylmethane, in preparing a mixture of stabilizing agents.
The mixtures were weighed in screw-capped bottles.
The bottles were placed in a shaking machine for agitation, for several hours.

Data set [5] can be described thus: Solubility in dioctyl phthalate, "DOP". Format: physicochemical.
Data set [6] is described as follows: Acute toxicity LD50 per os in the rat. As to conditions: in vivo, po. The source says:
Generally, toxicity increases or decreases linearly with the number of carbon atoms in the compound. […] Certain β-diketones, which are not a part of the present invention, have a toxicity which is non-negligible but low. […] In sharp contrast, the toxicity of the β-diketone compounds according to the present invention can be so low as to be not measurable.

Data set [7] can be described thus: Odor during storage / under operating conditions in PVC. As to conditions: during storage of the composition or transformation of the PVC. The source says:
In addition, under operating conditions in PVC, the β-diketone compositions according to the present invention can release substantially no odor, in sharp contrast to closely related compounds.

As usually defined, the LD50 is the dose at which mortality reaches 50%.

Isodecanoylacetophenone: the Physical state entry in “Physical state” is on record as “Liquid”. Moreover, the “Vapor pressure at 180° C.” value in data set [1] is listed as 2 mmHg.

As to Isononanoylacetophenone, the Physical state entry in “Physical state” is listed as “Liquid”. Further, the “Vapor pressure at 180° C.” value in data set [1] was determined as 4 mmHg.

Regarding `O=C(CC(=O)c1ccccc1)c1ccccc1` [Dibenzoylmethane, dibenzoylmethane], the Solubility is less than 5 g/100 g solution in data set [2] (Decalin, 3° C.); 5-10 g/100 g solution in data set [2] (Decalin, 25° C.); 10-20 g/100 g solution in data set [2] (Dioctyl adipate, DOA, 3° C.); 20-30 g/100 g solution in data set [2] (Dioctyl adipate, DOA, 25° C.); 5-10 g/100 g solution in data set [2] (Dioctyl adipate, DOA, -15° C.); 10-20 g/100 g solution in data set [2] (Dioctyl phthalate, DOP, 25° C.). In addition, the Solubility is on record as 5-10 g/100 g solution in data set [2] (Dioctyl phthalate, DOP, -15° C.); less than 10 g/100 g solution in data set [2] (Diphenyl decyl phosphite, "OS 150", 25° C., only 10% and 20% solutions examined); 10-20 g/100 g solution in data set [2] (Epoxidized soy oil, ESO, 3° C., probably high (crystallization was slow)); 10-20 g/100 g solution in data set [2] (Epoxidized soy oil, ESO, 25° C.); less than 1 g/100 g solution in data set [2] (Epoxidized soy oil, ESO, -15° C.); 10-20 g/100 g solution in data set [2] (Octyl trimellitate, OTM, 25° C.). In addition, the Solubility in data set [2] (Octyl trimellitate, OTM, -15° C.) is reported as 5-10 g/100 g solution; in data set [2] (Phenyl didecyl phosphite, "OS 300", 3° C., only 10% and 20% solutions examined) it was 10-20 g/100 g solution; in data set [2] (Phenyl didecyl phosphite, "OS 300", 25° C., only 10% and 20% solutions examined), 10-20 g/100 g solution; in data set [2] (Phenyl didecyl phosphite, "OS 300", -15° C., only 10% and 20% solutions examined), less than 10 g/100 g solution; in data set [2] (Phosphite of butylcarbitol and bisphenol A, 3° C., only 10% and 20% solutions examined) it was 10-20 g/100 g solution; in data set [2] (Phosphite of butylcarbitol and bisphenol A, 25° C., only 10% and 20% solutions examined) it was 10-20 g/100 g solution. Also, the Solubility result in data set [2] (Phosphite of butylcarbitol and bisphenol A, -15° C., only 10% and 20% solutions examined) is listed as “about 10 g/100 g solution”; in data set [2] (Tetralin, 3° C.), 10-20 g/100 g solution; in data set [2] (Tetralin, 25° C.) it was 20-30 g/100 g solution; in data set [2] (Tetralin, -15° C.), less than 10 g/100 g solution; in data set [2] (Tridecyl phosphite, "OS 330", 25° C., only 10% and 20% solutions examined) it was less than 10 g/100 g solution; in data set [2] (Trilauryl phosphite, "OS 360", 25° C., only 10% and 20% solutions examined), less than 10 g/100 g solution. Also, in “Physical state”, the Physical state result is “Solid”. The “Solubility in "one-pack" additive” value is 5-9 g/100 g solvent in data set [3] (3° C.), “about 9 g/100 g solvent” in data set [3] (23° C.) and less than 5 g/100 g solvent in data set [3] (-15° C.). The Solubility of mixture result in data set [4] (Ba 0, Zn 0, Phosphite 1/2, β-diketone 1/2) is recorded as “I”; in data set [4] (Ba 0, Zn 0, Phosphite 1/3, β-diketone 2/3), “I”; in data set [4] (Ba 0, Zn 0, Phosphite 2/3, β-diketone 1/3) it was “I”; in data set [4] (Ba 0, Zn 1/2, Phosphite 0, β-diketone 1/2) it was “I”; in data set [4] (Ba 0, Zn 2/3, Phosphite 0, β-diketone 1/3), “I”; in data set [4] (Ba 1/4, Zn 1/4, Phosphite 1/4, β-diketone 1/4), “I”. For the same compound, the Solubility of mixture result in data set [4] (Ba 1/8, Zn 1/8, Phosphite 3/8, β-diketone 3/8) is on record as “I”; in data set [4] (Ba 1/10, Zn 2/10, Phosphite 5/10, β-diketone 2/10) it was “I”; in data set [4] (Ba 1/10, Zn 3/10, Phosphite 0, β-diketone 6/10), “I”; in data set [4] (Ba 1/10, Zn 3/10, Phosphite 3/10, β-diketone 3/10) it was “I”. In addition, the “Solubility in dioctyl phthalate, "DOP"” value in data set [5] (3° C.) is reported as “about 10 g/100 g solvent”; in data set [5] (23° C.), 10-20 g/100 g solvent. Further, the “Vapor pressure at 180° C.” value in data set [1] was 4 mmHg.

Take `CCCCCCCC(=O)CC(=O)c1ccccc1` [Octanoylacetophenone, Octanoylbenzoylmethane]: the Physical state result in “Physical state” is given as “Solid”. Moreover, the “Solubility in "one-pack" additive” value in data set [3] (3° C.) was more than 18 g/100 g solvent; in data set [3] (23° C.) it was more than 18 g/100 g solvent; in data set [3] (-15° C.), 9-18 g/100 g solvent. The “Solubility in dioctyl phthalate, "DOP"” value in data set [5] (3° C.) is 50-100 g/100 g solvent; in data set [5] (23° C.), more than 100 g/100 g solvent; in data set [5] (-15° C.), 12-25 g/100 g solvent. The “Vapor pressure at 180° C.” value in data set [1] is reported as 5.6 mmHg.

For the compound `CCCCCCC(=O)CC(=O)c1ccccc1` [Heptanoylacetophenone, heptanoyl-benzoylmethane], the Physical state result in the data set “Physical state” is “Liquid”. Further, the “Solubility in "one-pack" additive” value in data set [3] (3° C.), in data set [3] (23° C.) and in data set [3] (-15° C.) was more than 18 g/100 g solvent throughout. Moreover, the “Solubility in dioctyl phthalate, "DOP"” value in data set [5] (3° C.) was more than 100 g/100 g solvent; in data set [5] (23° C.), more than 100 g/100 g solvent; in data set [5] (-15° C.) it was 50-100 g/100 g solvent. For the same compound, the “Vapor pressure at 180° C.” value in data set [1] is 7 mmHg.

As for Isoundecanoylacetophenone, the Physical state entry in the data set “Physical state” is “Liquid”. Also, the “Vapor pressure at 180° C.” value in data set [1] is reported as 1.5 mmHg.

In the case of `CC(C)CC(=O)CC(=O)c1ccccc1` [Isovaleroylacetophenone, isovalerylbenzoylmethane], in data set [6], the LD50 was found to be 4880 mg/kg. The Physical state result in “Physical state” is listed as “Liquid”. In addition, the “odor when degradation occurs” value in data set [7] is recorded as “intolerable odor”. For the same compound, in data set [1], the “Vapor pressure at 180° C.” value worked out at 28 mmHg.

In the case of “Isooctanoylbenzoylmethane [Isooctanoylacetophenone]”, the Physical state entry in the data set “Physical state” is listed as “Liquid”. In data set [1], the “Vapor pressure at 180° C.” value turned out to be 6 mmHg.
